Among the data in US20250262222A1, “HETEROCYCLIC COMPOUNDS, COMPOSITIONS THEREOF, AND METHODS OF TREATMENT THEREWITH” (BeiGene Switzerland GmbH, priority 2022, published 2025) are IC50 values, retold here.

In general, IC50 refers to the point on the concentration scale where inhibition reaches its midpoint.

Each structure is given as a SMILES string.

In the first assay the test system is pERK1/2(THR202/TYR204) level in AsPC-1 cell line. Description: KRAS G12D pERK assay. The assay is classed as cell-based. To be noted: AsPC-1 cells, 2 h compound treatment, HTRF. The protocol:
AsPC-1 cell line was used in this study. Cells were maintained in RPMI-1640 supplemented with 10% fetal bovine serum (Thermo Fisher), 50 units/mL penicillin and streptomycin (Thermo Fisher) and kept at 37° C. in a humidified atmosphere of 5% CO2 in air. Cells were reinstated from frozen stocks that were laid down within 30 passages from the original cells purchased. 30000 cells per well were seeded into a 96-well plate and incubated overnight. Cells were treated with a 10-point dilution series. The final compound concentration is from 0 to 10 μM. After 2 h compound treatment, cells were lysed, and the pERK1/2(THR202/TYR204) level in the cell lysates was detected by HTRF kit (Cisbio). In brief, a total of 16 μL of cell lysate from each well of a 96-well plate was transferred to a 384-well white assay plate. Lysate from each well was incubated with 2 μL of Eu3+-cryptate (donor) labeled anti-phospho-ERK1/2 and 2 μL of D2 (acceptor) labeled anti-phospho-ERK1/2 antibodies (Cisbio) overnight in dark at room temperature. When donor and acceptor are in close proximity, excitation of the donor with laser triggers a Fluorescence Resonance Energy Transfer (FRET) towards the acceptor, which in turn fluoresces at 655 nm wavelength. FRET signals were measured using a PHERAstar FSX reader (BMG Labtech). IC50 determination was performed by fitting the curve of percent inhibition versus the log of the inhibitor concentration using Dotmatics.
With `Nc1cc(Cl)c(C(F)(F)F)c(-c2nc3c4c(nc(OC[C@@]56CCCN5C[C@H](F)C6)nc4c2F)N2C[C@H]4CC[C@H](N4)C2CCO3)c1` (single isomer, unassigned) [Example 24], the IC50 turned out to be 4.4 nM.
For `Nc1cc(Cl)c(C(F)(F)F)c(-c2nc3c4c(nc(OC[C@@]56CCCN5C[C@H](F)C6)nc4c2F)N2C[C@H]4CC[C@H](N4)C2CCO3)c1` (single isomer, unassigned) [Example 25], the IC50 is 504 nM.

Staying with this assay, now noted: Homo sapiens, ASPC1, 2 h, AsPC-1 cells, 2 h compound treatment, HTRF.
Take `Cc1nc(N)cc(-c2nc3c4c(nc(OCC56COC(C5)C6)nc4c2F)N2CC4CCC(N4)[C@H]2CCO3)c1C(F)(F)F` (stereo in doubt) [Example 42, 4-((6aR,7R,10S)-13-((2-oxabicyclo[2.1.1]hexan-4-yl)methoxy)-1-fluoro-5,6,6a,7,8,9,10,11-octahydro-4-oxa-3,11a,12,14,15-pentaaza-7,10-methanocyclohepta[4,5]cyclo-octa[1,2,3-de]naphthalen-2-yl)-6-methyl-5-(trifluoromethyl)pyridin-2-amine]: the midpoint of inhibition, the IC50, lay at 1850 nM.
In turn, `Nc1cc(Cl)c(C(F)(F)F)c(-c2nc3c4c(nc(OC[C@@]56CCCN5C[C@H](F)C6)nc4c2F)N2CC4CCC(N4)C2CO3)c1` (stereo partly drawn) [Example 10, 3-chloro-5-(1-fluoro-12-(((2R,7aS)-2-fluorotetrahydro-1H-pyrrolizin-7a(5H)-yl)methoxy)-5a,6,7,8,9,10-hexahydro-5H-4-oxa-3,10a,11,13,14-pentaaza-6,9-methanonaphtho[1,8-ab]heptalen-2-yl)-4-(trifluoromethyl)aniline] gave an IC50 of 58 nM.
Regarding `C#Cc1c(F)ccc2cc(O)cc(-c3nc4c5c(nc(OC[C@@]67CCCN6C[C@H](F)C7)nc5c3F)N3CC5CCC(N5)C3CO4)c12` (stereo partly drawn) [Example 11, 5-ethynyl-6-fluoro-4-(1-fluoro-12-(((2R,7aS)-2-fluorotetrahydro-1H-pyrrolizin-7a(5H)-yl)methoxy)-5a,6,7,8,9,10-hexahydro-5H-4-oxa-3,10a,11,13,14-pentaaza-6,9-methanonaphtho[1,8-ab]heptalen-2-yl)naphthalen-2-ol], the IC50 is 30 nM.
`Nc1cc(Cl)c(C(F)(F)F)c(-c2nc3c4c(nc(OC[C@@]56CCCN5C[C@H](F)C6)nc4c2F)N2C[C@H]4CC[C@H](N4)[C@H]2CO3)c1` [Example 17, 3-chloro-5-((5aS,6S,9R)-1-fluoro-12-(((2R,7aS)-2-fluorotetrahydro-1H-pyrrolizin-7a(5H)-yl)methoxy)-5a,6,7,8,9,10-hexahydro-5H-4-oxa-3,10a,11,13,14-pentaaza-6,9-methanonaphtho[1,8-ab]heptalen-2-yl)-4-(trifluoromethyl)aniline] gave an IC50 of 11 nM.
Turning to `Cc1cc(N)cc(-c2nc3c4c(nc(OCC56COC(C)(C5)C6)nc4c2F)N2C[C@H]4CC[C@H](N4)[C@H]2CCO3)c1C(F)(F)F` [Example 28, 3-((6aR,7S,10R)-1-fluoro-13-((1-methyl-2-oxabicyclo[2.1.1]hexan-4-yl)methoxy)-5,6,6a,7,8,9,10,11-octahydro-4-oxa-3,11a,12,14,15-pentaaza-7,10-methanocyclohepta[4,5]cyclo-octa[1,2,3-de]naphthalen-2-yl)-5-methyl-4-(trifluoromethyl)aniline], the IC50 amounted to 152 nM.
With `Cc1cc(N)cc(-c2nc3c4c(nc(OCC56COCC(F)(C5)C6)nc4c2F)N2C[C@H]4CC[C@H](N4)[C@H]2CCO3)c1C(F)(F)F` [Example 30, 3-((6aR,7S,10R)-1-fluoro-13-((5-fluoro-3-oxabicyclo[3.1.1]heptan-1-yl)methoxy)-5,6,6a,7,8,9,10,11-octahydro-4-oxa-3,11a,12,14,15-pentaaza-7,10-methanocyclohepta[4,5]cyclo-octa[1,2,3-de]naphthalen-2-yl)-5-methyl-4-(trifluoromethyl)aniline], the IC50 was found to be 198 nM.
Compound `Cc1c(F)c(N)cc(-c2nc3c4c(nc(OCC5(C(F)F)COC5)nc4c2F)N2C[C@H]4CC[C@H](N4)[C@H]2CCO3)c1C(F)(F)F` [Example 31, 5-((6aR,7S,10R)-13-((3-(difluoromethyl)oxetan-3-yl)methoxy)-1-fluoro-5,6,6a,7,8,9,10,11-octahydro-4-oxa-3,11a,12,14,15-pentaaza-7,10-methanocyclohepta[4,5]cyclo-octa[1,2,3-de]naphthalen-2-yl)-2-fluoro-3-methyl-4-(trifluoromethyl)aniline] yielded an IC50 of 162 nM. The IC50 values of the last two compounds are within 1.5-fold of each other.
In turn, `CCOC(=O)N1CC(C)(COc2nc3c4c(nc(-c5cc(N)cc(Cl)c5C(F)(F)F)c(F)c4n2)OCC[C@@H]2[C@@H]4CC[C@H](CN32)N4)C1` [Example 33, ethyl 3-((((6aR,7S,10R)-2-(5-amino-3-chloro-2-(trifluoromethyl)phenyl)-1-fluoro-5,6,6a,7,8,9,10,11-octahydro-4-oxa-3,11a,12,14,15-pentaaza-7,10-methanocyclohepta[4,5]cyclo-octa[1,2,3-de]naphthalen-13-yl)oxy)methyl)-3-methylazetidine-1-carboxylate] gave an IC50 of 286 nM.
Take `CC12CC(COc3nc4c5c(nc(-c6cc(N)cc(Cl)c6C(F)(F)F)c(F)c5n3)OCC[C@@H]3[C@@H]5CC[C@H](CN43)N5)(CO1)C2` [Example 34, 3-chloro-5-((6aR,7S,10R)-1-fluoro-13-((1-methyl-2-oxabicyclo[2.1.1]hexan-4-yl)methoxy)-5,6,6a,7,8,9,10,11-octahydro-4-oxa-3,11a,12,14,15-pentaaza-7,10-methanocyclohepta[4,5]cyclo-octa[1,2,3-de]naphthalen-2-yl)-4-(trifluoromethyl)aniline]: the IC50 was 82 nM.
Compound `CC12CCC(COc3nc4c5c(nc(-c6cc(N)cc(Cl)c6C(F)(F)F)c(F)c5n3)OCC[C@@H]3[C@@H]5CC[C@H](CN43)N5)(CO1)C2` [Example 36, 3-chloro-5-((6aR,7S,10R)-1-fluoro-13-((1-methyl-2-oxabicyclo[2.2.1]heptan-4-yl)methoxy)-5,6,6a,7,8,9,10,11-octahydro-4-oxa-3,11a,12,14,15-pentaaza-7,10-methanocyclohepta[4,5]cyclo-octa[1,2,3-de]naphthalen-2-yl)-4-(trifluoromethyl)aniline] had an IC50 of 106 nM.
Still for that read-out and setting: next, `Nc1cc(Cl)c(C(F)(F)F)c(-c2nc3c4c(nc(OCC56COCC(F)(C5)C6)nc4c2F)N2C[C@H]4CC[C@H](N4)[C@H]2CCO3)c1` [Example 37, 3-chloro-5-((6aR,7S,10R)-1-fluoro-13-((5-fluoro-3-oxabicyclo[3.1.1]heptan-1-yl)methoxy)-5,6,6a,7,8,9,10,11-octahydro-4-oxa-3,11a,12,14,15-pentaaza-7,10-methanocyclohepta[4,5]cyclo-octa[1,2,3-de]naphthalen-2-yl)-4-(trifluoromethyl)aniline]: 97 nM; `Oc1cc(Cl)c(C2CC2)c(-c2nc3c4c(nc(OCC56COC(C5)C6)nc4c2F)N2C[C@H]4CC[C@H](N4)[C@H]2CCO3)c1` [Example 38, 3-((6aR,7S,10R)-13-((2-oxabicyclo[2.1.1]hexan-4-yl)methoxy)-1-fluoro-5,6,6a,7,8,9,10,11-octahydro-4-oxa-3,11a,12,14,15-pentaaza-7,10-methanocyclohepta[4,5]cyclo-octa[1,2,3-de]naphthalen-2-yl)-5-chloro-4-cyclopropylphenol]: 1870 nM; `COCC12CC(COc3nc4c5c(nc(-c6cc(N)cc(Cl)c6C(F)(F)F)c(F)c5n3)OCC[C@@H]3[C@@H]5CC[C@H](CN43)N5)(CO1)C2` [Example 39, 3-chloro-5-((6aR,7S,10R)-1-fluoro-13-((1-(methoxymethyl)-2-oxabicyclo[2.1.1]hexan-4-yl)methoxy)-5,6,6a,7,8,9,10,11-octahydro-4-oxa-3,11a,12,14,15-pentaaza-7,10-methanocyclohepta[4,5]cyclo-octa[1,2,3-de]naphthalen-2-yl)-4-(trifluoromethyl)aniline]: 409 nM.
Turning to `COC(=O)N1CC(C)(COc2nc3c4c(nc(-c5cc(N)cc(C)c5C(F)(F)F)c(F)c4n2)OCC[C@@H]2[C@@H]4CC[C@H](CN32)N4)C1` [Example 43, methyl 3-((((6aR,7S,10R)-2-(5-amino-3-methyl-2-(trifluoromethyl)phenyl)-1-fluoro-5,6,6a,7,8,9,10,11-octahydro-4-oxa-3,11a,12,14,15-pentaaza-7,10-methanocyclohepta[4,5]cyclo-octa[1,2,3-de]naphthalen-13-yl)oxy)methyl)-3-methylazetidine-1-carboxylate], the IC50 was found to be 584 nM.
For the compound `C[C@](O)(COc1nc2c3c(nc(-c4cc(N)cc(Cl)c4C(F)(F)F)c(F)c3n1)OCC[C@@H]1[C@@H]3CC[C@H](CN21)N3)C(F)(F)F` [Example 44, (S)-3-(((6aR,7S,10R)-2-(5-amino-3-chloro-2-(trifluoromethyl)phenyl)-1-fluoro-5,6,6a,7,8,9,10,11-octahydro-4-oxa-3,11a,12,14,15-pentaaza-7,10-methanocyclohepta[4,5]cyclo-octa[1,2,3-de]naphthalen-13-yl)oxy)-1,1,1-trifluoro-2-methylpropan-2-ol], it took 2220 nM to reach half-maximal inhibition (IC50).
